In the supplement of paper PMC12317010:

Assay: collision cross section in nitrogen (drift tube, single-field); higher = larger gas-phase ion size
[1] = ion type: [M+H], ion source: APCI, ion mode: Positive
[2] = ion type: [M+H], ion source: ESI, ion mode: Positive
[3] = ion type: [M+Na], ion source: ESI, ion mode: Positive
[4] = ion type: [M-H], ion source: ESI, ion mode: Negative
[5] = ion type: [M+], ion source: APCI, ion mode: Positive
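Note: chemical standards at 10 µM analysed by drift tube IMS-QTOF MS in about 3.95 torr nitrogen, mean of duplicate injections differing ≤1%, mass error below 10 ppm.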

Compound: C#CC(C)N(C)C(=O)Nc1ccc(Cl)cc1 (centres undefined) [Buturon]
- collision cross section in nitrogen [1]: 152.2 Å²
- collision cross section in nitrogen [2]: 153.7 Å²
- collision cross section in nitrogen [3]: 166.1 Å²
- collision cross section in nitrogen [4]: 154.6 Å²

Compound: O=C(O)CCCCCCCCCC(=O)O [Undecanedioic acid]
- collision cross section in nitrogen [4]: 149 Å²

Compound: CCCCc1nc(Cl)c(CO)n1Cc1ccc(-c2ccccc2-c2nnn[nH]2)cc1 [Losartan potassium]
- collision cross section in nitrogen [1]: 201.6 Å²
- collision cross section in nitrogen [2]: 201.2 Å²
- collision cross section in nitrogen [3]: 204.9 Å²
- collision cross section in nitrogen [4]: 203.4 Å²

Compound: COc1ccc(O)c(C(C)(C)C)c1 [2-tert-Butyl-4-methoxyphenol]
- collision cross section in nitrogen [4]: 142.3 Å²

Compound: Cc1ccc(S(N)(=O)=O)cc1 [4-Toluenesulfonamide]
- collision cross section in nitrogen [4]: 136.3 Å²

Compound: CCN(CC)c1ccc2c(-c3ccccc3C(=O)O)c3ccc(N(CC)CC)cc3[o+]c2c1 [Rhodamine B]
- collision cross section in nitrogen (ion source: ESI, ion mode: Positive, ion type: [M]+ (permanent cation)): 218.1 Å²

Compound: O=C(O)c1c(Cl)ccc2cc(Cl)cnc12 [Quinclorac]
- collision cross section in nitrogen [2]: 142.6 Å²

Compound: Oc1c(I)cc(I)cc1I [2,4,6-Triiodophenol]
- collision cross section in nitrogen [5]: 139.5 Å²
- collision cross section in nitrogen [4]: 143.5 Å²

Compound: FC(F)C(F)(F)OCC(Cn1cncn1)c1ccc(Cl)cc1Cl (centres undefined) [Tetraconazole]
- collision cross section in nitrogen [1]: 177.6 Å²
- collision cross section in nitrogen [2]: 176.6 Å²

Compound: CC(C)(c1ccccc1)c1ccc(O)c(C(C)(C)c2ccccc2)c1 [2,4-Bis(1-methyl-1-phenylethyl)phenol]
- collision cross section in nitrogen [2]: 171.9 Å²
- collision cross section in nitrogen [4]: 187.8 Å²

Compound: Nc1cc2c3c(c1)C(c1ccccc1)=N[C@@H](NC(=O)c1cccnc1)C(=O)N3CC2
- collision cross section in nitrogen [1]: 201.2 Å²
- collision cross section in nitrogen [2]: 200.1 Å²
- collision cross section in nitrogen [3]: 209.2 Å²

Compound: Nc1cccnc1 [3-Pyridinamine]
- collision cross section in nitrogen [1]: 115 Å²
- collision cross section in nitrogen [2]: 115.2 Å²

Compound: CNC(=O)Oc1cccc2c1OC(C)(C)C2 [Carbofuran]
- collision cross section in nitrogen [3]: 157.8 Å²

Compound: Cc1nc(C)nc(N2C[C@@H](C)N(c3ccnc([C@@H](C)O)n3)[C@@H](C)C2)n1
- collision cross section in nitrogen [1]: 191.2 Å²
- collision cross section in nitrogen [2]: 190.4 Å²
- collision cross section in nitrogen [3]: 183.4 Å²
- collision cross section in nitrogen [4]: 192.5 Å²

Compound: CCOC(=O)C(C#N)=C(c1ccccc1)c1ccccc1 [Ethyl 2-cyano-3,3-diphenylacrylate]
- collision cross section in nitrogen [3]: 180.6 Å²

Compound: CNc1ccc(NCCO)c2c1C(=O)c1ccccc1C2=O [C.I. Disperse Blue 3]
- collision cross section in nitrogen [1]: 167.2 Å²
- collision cross section in nitrogen [2]: 167.5 Å²

Compound: CC1C(C)(C)C2=C(C(=O)CCC2)C1(C)C (centres undefined) [Cashmeran]
- collision cross section in nitrogen [4]: 154.6 Å²

Compound: Nc1ccc(Cl)cc1C(=O)c1ccccc1 [2-Amino-5-chlorobenzophenone]
- collision cross section in nitrogen [4]: 150.4 Å²

Compound: O=C(O)c1ccccc1C(c1ccc(O)cc1)c1ccc(O)cc1 [Phenolphthalin]
- collision cross section in nitrogen [4]: 184.1 Å²

Compound: c1nc[nH]n1 [1H-1,2,4-Triazole]
- collision cross section in nitrogen [4]: 107.7 Å²

Compound: CNC(=O)ON=CC(C)(C)SC [Aldicarb]
- collision cross section in nitrogen [3]: 147.5 Å²

Compound: CC(C)(C)c1ccc(O)c(C(C)(C)C)c1 [2,4-Di-tert-butylphenol]
- collision cross section in nitrogen [4]: 155.1 Å²

Compound: Oc1ccc(/C=C/c2cc(O)cc(O)c2)cc1 [Resveratrol]
- collision cross section in nitrogen [5]: 155.1 Å²
- collision cross section in nitrogen [4]: 159.3 Å²

Compound: Cc1cc(=O)nc(C(C)C)[nH]1 [2-Isopropyl-6-methyl-4-pyrimidone]
- collision cross section in nitrogen [1]: 133.9 Å²
- collision cross section in nitrogen [2]: 132.5 Å²
- collision cross section in nitrogen [3]: 146.4 Å²
- collision cross section in nitrogen [4]: 135.5 Å²

Compound: CC(C)=CC1C(C(=O)OCc2coc(Cc3ccccc3)c2)C1(C)C (centres undefined) [Resmethrin]
- collision cross section in nitrogen [3]: 177.8 Å²

Compound: Cc1ccc(S(=O)(=O)Oc2ccc(N=Nc3ccc(-c4ccc(N=Nc5c(O)ccc6cc(S(=O)(=O)O)cc(S(=O)(=O)O)c56)c(C)c4)cc3C)cc2)cc1 [C.I. Acid Red 114]
- collision cross section in nitrogen [2]: 319.9 Å²
- collision cross section in nitrogen [4]: 317.8 Å²

Compound: O=[PH]1Oc2ccccc2-c2ccccc21 (centres undefined) [6H-Dibenzo[c,e][1,2]oxaphosphinine 6-oxide]
- collision cross section in nitrogen [2]: 146.1 Å²
- collision cross section in nitrogen [4]: 145.8 Å²
